{"source": "ChEMBL document CHEMBL1134929", "about": "“Synthesis and biological activity of potent heterocyclic thiol-based inhibitors of endothelin-converting enzyme-1” (Bioorg Med Chem Lett, 2002)", "key": {"[1]": {"target": "T1, Endothelin-converting enzyme 1 (Homo sapiens, UniProt P42892)", "T1 sequence (P42892 whole entry)": "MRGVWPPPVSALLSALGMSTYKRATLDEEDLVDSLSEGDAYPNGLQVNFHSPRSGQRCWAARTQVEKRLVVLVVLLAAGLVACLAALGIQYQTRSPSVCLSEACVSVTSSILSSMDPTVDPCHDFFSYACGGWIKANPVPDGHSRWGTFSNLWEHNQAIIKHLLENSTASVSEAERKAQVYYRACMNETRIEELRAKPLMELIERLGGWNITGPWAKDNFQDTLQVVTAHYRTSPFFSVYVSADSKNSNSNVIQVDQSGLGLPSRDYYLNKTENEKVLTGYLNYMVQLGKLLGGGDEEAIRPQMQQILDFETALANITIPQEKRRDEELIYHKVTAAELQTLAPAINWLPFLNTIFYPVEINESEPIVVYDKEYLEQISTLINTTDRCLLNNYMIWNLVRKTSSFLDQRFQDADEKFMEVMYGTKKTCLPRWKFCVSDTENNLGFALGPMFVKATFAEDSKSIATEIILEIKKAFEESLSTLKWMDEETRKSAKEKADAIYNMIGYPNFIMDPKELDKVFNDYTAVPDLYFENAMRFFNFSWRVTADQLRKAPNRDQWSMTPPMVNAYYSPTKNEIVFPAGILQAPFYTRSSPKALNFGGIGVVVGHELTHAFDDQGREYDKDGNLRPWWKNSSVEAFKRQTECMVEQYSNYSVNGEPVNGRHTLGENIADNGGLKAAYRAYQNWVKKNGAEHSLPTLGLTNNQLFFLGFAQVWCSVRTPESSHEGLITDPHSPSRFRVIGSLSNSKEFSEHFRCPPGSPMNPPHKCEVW", "assay": "In vitro inhibition of Endothelin-converting enzyme 1."}, "Rattus norvegicus [2]": {"test_system": "Rattus norvegicus", "assay": "Compound was evaluated for its ability to inhibit the Endothelin 1 induced pressor response in anesthetized rats iupon oral administration of 3 mg/kg at 4 hr post dosing", "type": "functional"}, "Rattus norvegicus [3]": {"test_system": "Rattus norvegicus", "assay": "Compound was evaluated for its ability to inhibit the Endothelin 1 induced pressor response in rats upon oral administration of 3-30 mg/kg at 2 hr post dosing", "type": "functional"}, "Rattus norvegicus [4]": {"test_system": "Rattus norvegicus", "assay": "Compound was evaluated for its ability to inhibit the Endothelin 1 induced pressor response in anesthetized rats upon oral administration of 3 mg/kg at 2 hr post dosing", "type": "functional"}, "Rattus norvegicus [5]": {"test_system": "Rattus norvegicus", "assay": "Compound was evaluated for its ability to inhibit the Endothelin 1 induced pressor response in anesthetized rats upon oral administration of 3 mg/kg at 8 hr post dosing", "type": "functional"}, "Rattus norvegicus [6]": {"test_system": "Rattus norvegicus", "assay": "Compound was evaluated for its ability to inhibit the Endothelin 1 induced pressor response in anesthetized rats upon oral administration of 3 mg/kg at 0.5 hr post dosing", "type": "functional"}, "Rattus norvegicus [7]": {"test_system": "Rattus norvegicus", "assay": "Compound was evaluated for its ability to inhibit Endothelin 1 induced increase in mean arterial pressure (MAP) after 15 min of dosing (20 mg/kg) in rats.", "type": "functional, Artery"}, "Rattus norvegicus [8]": {"test_system": "Rattus norvegicus", "assay": "Compound was evaluated for its ability to inhibit the Endothelin 1 induced pressor response in anesthetized rats intravenous administration of 10 mg/kg", "type": "functional"}}, "data": [{"molecule": "CC(C)[C@H](S)C(=O)NC1(C(=O)NC(Cc2ccc(-c3cccc(N)c3)nc2)C(=O)O)CCCC1", "note": "(stereo partly specified)", "values": [{"measurement": "IC50", "setting": "[1]", "value": 64, "unit": "nM"}]}, {"molecule": "COC(=O)[C@H](Cc1ccc(-c2cccs2)nc1)NC(=O)C1(NC(=O)[C@H](CC(C)C)SC(C)=O)CCCC1", "values": [{"measurement": "inhibition in vivo at 3 mg/kg", "setting": "Rattus norvegicus [2]", "value": 70, "unit": "%"}, {"measurement": "Inhibition", "setting": "Rattus norvegicus [3]", "value": 65, "unit": "%"}, {"measurement": "inhibition in vivo at 3 mg/kg", "setting": "Rattus norvegicus [4]", "value": 82, "unit": "%"}, {"measurement": "inhibition in vivo at 3 mg/kg", "setting": "Rattus norvegicus [5]", "value": 34, "unit": "%"}, {"measurement": "inhibition in vivo at 3 mg/kg", "setting": "Rattus norvegicus [6]", "value": 90, "unit": "%"}]}, {"molecule": "CC(C)C[C@H](S)C(=O)NC1(C(=O)N[C@@H](Cc2ccc(-c3cccs3)nc2)C(=O)O)CCCC1", "values": [{"measurement": "Increase in MAP", "setting": "Rattus norvegicus [7]", "value": 77, "unit": "%"}, {"measurement": "IC50", "setting": "[1]", "value": 9.5, "unit": "nM"}, {"measurement": "inhibition in vivo at 10 mg/kg", "setting": "Rattus norvegicus [8]", "value": 61, "unit": "%"}]}, {"molecule": "CC(C)[C@H](S)C(=O)NC1(C(=O)NC(Cc2ccc(-c3ccoc3)nc2)C(=O)O)CCCC1", "note": "(stereo partly specified)", "values": [{"measurement": "IC50", "setting": "[1]", "value": 39, "unit": "nM"}]}, {"molecule": "CC(C)[C@H](S)C(=O)NC1(C(=O)N[C@@H](Cc2ccc(-c3ccccc3)cc2)C(=O)O)CCCC1", "values": [{"measurement": "inhibition in vivo at 10 mg/kg", "setting": "Rattus norvegicus [8]", "value": 40, "unit": "%"}]}]}
